Bridge positions count the residues as written; N and C are the ends. Square brackets hold non-standard residues; d marks the D form. Peptide text beside a SMILES is read from it. hArg = N=C(N)NCCCC[C@H](N)C(=O)O; Nle = CCCC[C@H](N)C(=O)O; Ac5c = NC1(C(=O)O)CCCC1; Dab = NCC[C@H](N)C(=O)O; Dap = NC[C@H](N)C(=O)O; Aib = CC(C)(N)C(=O)O
How the values were obtained:
CYP2D6 = CYP2D6 (Homo sapiens, UniProt P10635); experiment: CYP2D6 inhibition in pooled human liver microsomes; type: in vitro ADME; design: Pooled human liver microsomes (HLM, final concentration 0.05 mg protein/mL); tissue BD Biosciences 452161; host or cells: pooled human liver microsomes; conditions: 10 μM compound, dextrorphan formation rate
Chain of CYP2D6 (P10635 whole entry): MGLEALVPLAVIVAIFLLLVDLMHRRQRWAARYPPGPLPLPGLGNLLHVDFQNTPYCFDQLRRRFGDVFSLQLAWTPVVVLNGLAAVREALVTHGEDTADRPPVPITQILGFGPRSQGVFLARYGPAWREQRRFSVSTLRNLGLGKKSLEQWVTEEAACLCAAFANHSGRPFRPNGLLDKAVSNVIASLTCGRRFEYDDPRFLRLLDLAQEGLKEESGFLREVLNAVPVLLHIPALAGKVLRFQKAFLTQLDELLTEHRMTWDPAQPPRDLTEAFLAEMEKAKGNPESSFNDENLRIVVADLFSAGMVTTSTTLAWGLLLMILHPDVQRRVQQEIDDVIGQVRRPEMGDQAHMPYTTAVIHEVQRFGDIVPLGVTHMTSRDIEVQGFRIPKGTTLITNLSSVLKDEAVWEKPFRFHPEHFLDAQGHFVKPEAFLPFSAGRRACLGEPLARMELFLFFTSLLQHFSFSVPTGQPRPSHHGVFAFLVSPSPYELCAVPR
Method: Stock solutions of the test compounds (1 mM) were prepared in 50% isopropanol or 20% DMSO. Pooled human liver microsomes (HLM, final concentration 0.05 mg protein/mL) were mixed with phosphate buffer (0.1 M potassium phosphate, pH 7.4), CYP2D6 substrate (dextrometrorphan, 5 μM final concentration) and test compound (10 μM), quinidine (0.5 μM) or vehicle (0.2% DMSO or 0.5% isopropanol). The mixture was preincubated for 5 min at 37° C. prior to initiation of the reaction addition of a NADPH regenerating mixture (Final concentration: 1.25 mM NADP^+, 3.3 mM Glucose-6-phosphate, 3.3 mM MgCL2 and 0.4 U/mL glucose-6-phosphat dehydrogenase). After 5 minutes the reaction was stopped by addition of 0.25 volume stop reagent (94% acetonitrile, 6% acetic acid). Each experiment was performed in duplicate or triplicate.
The quantification of CYP2D6 product (dextrorphan) was performed by LC/MS/MS. After centrifugation for 5 min at 10.000 g, 40 μL of the supernatant was injected onto a C8 RP-HPLC column (XterraMS, C8, […], 50×2.1 mm). Dextrorphan was eluted by a linear gradient from 0 to 90% acetonitrile in 0.1% formic acid over 4 min using a flow rate of 0.15 ml/min. The concentration of dextrorphan in the reaction mixture was estimated from the peak area of the MS/MS transition (m/z 258.1>199) using an external calibration curve (Table 8).
The CYP2D6 activity in HLM was calculated as the metabolite formation rate: […]
Where, v is the formation rate, [metabolite] is the detected concentration of dextrorphan (pmol/mL) at the time (t, min) and [protein] is the protein concentration (mg/mL) in the reaction mixture. The influence of the test compounds on the CYP2D6 activity was calculated as % of the activity measured when incubated with the vehicle. The effect of CYP2D6 inhibitor (quinidine) was included as inhibition control within each batch analysis. A reduction in CYP2D6 activity to less than 70% of the vehicle control was considered significant.

Saos-2 PTH1R = biological target: T1, Saos-2 PTH1R (Homo sapiens, UniProt Q03431); experiment: cAMP-efficacy assay in Saos-2 cells; type: cell-based; conditions: for EC50 / pEC50 ± SEM / potency compared to linear / non-stabilized counterparts, in words: cAMP; for EC50 / pEC50 ± SEM: 100 μM IBMX, 37° C. 15 min, suffix of label = salt tested; for Emax ± SEM: relative effect to the control (SEQ ID NO: 32)
T1 construct: endogenous in cells; host or cells: Saos-2
T1 sequence (Q03431 27-593): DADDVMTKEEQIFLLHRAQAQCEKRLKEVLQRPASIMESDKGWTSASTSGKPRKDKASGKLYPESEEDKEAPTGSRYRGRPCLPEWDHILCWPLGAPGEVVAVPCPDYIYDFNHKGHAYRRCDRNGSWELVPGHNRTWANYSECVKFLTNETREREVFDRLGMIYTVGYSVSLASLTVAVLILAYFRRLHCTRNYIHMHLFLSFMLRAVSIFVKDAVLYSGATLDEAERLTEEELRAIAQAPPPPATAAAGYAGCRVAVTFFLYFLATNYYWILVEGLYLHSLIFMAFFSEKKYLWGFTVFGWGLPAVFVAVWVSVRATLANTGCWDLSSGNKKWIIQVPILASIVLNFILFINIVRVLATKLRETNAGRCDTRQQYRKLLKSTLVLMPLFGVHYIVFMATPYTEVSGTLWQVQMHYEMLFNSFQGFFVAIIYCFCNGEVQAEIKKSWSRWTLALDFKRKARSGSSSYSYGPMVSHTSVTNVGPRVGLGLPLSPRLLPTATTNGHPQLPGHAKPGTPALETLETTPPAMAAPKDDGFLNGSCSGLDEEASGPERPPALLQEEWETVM
How it was run: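 Saos-2 cells, grown two days after seeding at 50,000 cells/well, were exposed to peptide for 15 min at 37 °C in Tyrode's buffer with 0.1% BSA and 100 μM IBMX. After stopping with cold HCl, cAMP was measured by radioimmunoassay FlashPlate. EC50, pEC50, Hill slope and Emax came from a four-parameter sigmoidal fit.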

Compound	CYP2D6 activity (% of vehicle) (CYP2D6)	EC50 (Saos-2 PTH1R) [µM]	Emax ± SEM (Saos-2 PTH1R)	pEC50 ± SEM (Saos-2 PTH1R)	potency compared to linear / non-stabilized counterparts, in words (Saos-2 PTH1R)	potency compared to linear / non-stabilized counterparts, in words (Saos-2 PTH1R; listed as 34)	potency compared to linear / non-stabilized counterparts, in words (Saos-2 PTH1R; listed as SEQ ID NO:34)
CC[C@H](C)[C@H](NC(=O)[C@H](CCC(=O)O)NC(=O)C(C)(C)NC(=O)[C@@H](NC(=O)C1(N)CCCC1)C(C)C)C(=O)N[C@@H](CCC(=O)O)C(=O)N[C@@H](CC(C)C)C(=O)N[C@@H](CCSC)C(=O)N[C@@H](Cc1c[nH]cn1)C(=O)N[C@@H](CCC(N)=O)C(=O)N[C@@H](CCCCNC(=N)N)C(=O)N[C@@H](C)C(=O)N[C@H]1CCCCNC(=O)C[C@@H](C(N)=O)NC(=O)[C@H](CC(N)=O)NC(=O)[C@H](CC(C)C)NC(=O)[C@H](Cc2c[nH]c3ccccc23)NC1=O [SEQ ID NO: 18, H-Ac5c-Val-Aib-Glu-IIe-Glu-Leu-Met-His-Gln-Har-Ala-Lys( )-Trp-Leu-Asn-Asp( )-NH2] (H-[Ac5c]V[Aib]EIELMHQ[hArg]AKWLND-NH2; lactam 13-17)	89 % of vehicle	0.0513	1.24 ± 0.29	–	–	–	–
CC[C@H](C)[C@H](NC(=O)[C@H](CCC(=O)O)NC(=O)[C@H](CO)NC(=O)[C@@H](NC(=O)[C@@H](N)CO)C(C)C)C(=O)N[C@@H](CCC(N)=O)C(=O)N[C@@H](CC(C)C)C(=O)N[C@@H](CCSC)C(=O)N[C@@H](Cc1c[nH]cn1)C(=O)N[C@@H](CC(N)=O)C(=O)N[C@@H](CC(C)C)C(=O)NCC(=O)N[C@H]1CCCCNC(=O)C[C@@H](C(N)=O)NC(=O)[C@H](CC(N)=O)NC(=O)[C@H](CC(C)C)NC(=O)[C@H](Cc2c[nH]cn2)NC1=O [SEQ ID NO: 36]	79 % of vehicle	–	–	inactive	–	–	–
CC[C@H](C)[C@H](NC(=O)[C@H](CCC(=O)O)NC(=O)C(C)(C)NC(=O)[C@@H](NC(=O)C1(N)CCCC1)C(C)C)C(=O)N[C@@H](CCC(N)=O)C(=O)N[C@@H](CC(C)C)C(=O)N[C@@H](CCSC)C(=O)N[C@@H](Cc1c[nH]cn1)C(=O)N[C@@H](CC(N)=O)C(=O)N[C@@H](CC(C)C)C(=O)NCC(=O)N[C@@H](CCCCN)C(=O)N[C@@H](Cc1c[nH]cn1)C(=O)N[C@@H](CC(C)C)C(=O)N[C@@H](CC(N)=O)C(=O)N[C@@H](CC(=O)O)C(N)=O [SEQ ID NO: 1] (H-[Ac5c]V[Aib]EIQLMHNLGKHLND-NH2)	57 % of vehicle	–	–	inactive	–	–	–
CCCC[C@H](NC(=O)[C@H](CC(C)C)NC(=O)[C@H](CCC(N)=O)NC(=O)[C@@H](NC(=O)[C@H](CCC(=O)O)NC(=O)C(C)(C)NC(=O)[C@@H](NC(=O)C1(N)CCCC1)C(C)C)[C@@H](C)CC)C(=O)N[C@@H](Cc1c[nH]cn1)C(=O)N[C@@H](CCC(N)=O)C(=O)N[C@@H](CCCCNC(=N)N)C(=O)N[C@@H](C)C(=O)N[C@H]1CCCCNC(=O)C[C@@H](C(N)=O)NC(=O)[C@H](CC(N)=O)NC(=O)[C@H](CC(C)C)NC(=O)[C@H](Cc2c[nH]c3ccccc23)NC1=O [SEQ ID NO: 20, H-Ac5c-Val-Aib-Glu-Ile-Gln-Leu-Nle-His-Gln-Har-Ala-Lys( )-Trp-Leu-Asn-Asp( )-NH2] (H-[Ac5c]V[Aib]EIQL[Nle]HQ[hArg]AKWLND-NH2; lactam 13-17)	99 % of vehicle	0.00794	0.97 ± 0.04	–	–	–	–
CC[C@H](C)[C@H](NC(=O)[C@H](CCC(=O)O)NC(=O)C(C)(C)NC(=O)[C@@H](NC(=O)C1(N)CCCC1)C(C)C)C(=O)N[C@@H](CCC(N)=O)C(=O)N[C@@H](CC(C)C)C(=O)N[C@@H](CCSC)C(=O)N[C@@H](Cc1c[nH]cn1)C(=O)N[C@@H](CC(N)=O)C(=O)N[C@@H](CC(C)C)C(=O)NCC(=O)N[C@H]1CCCCNC(=O)C[C@@H](C(N)=O)NC(=O)[C@H](CC(N)=O)NC(=O)[C@H](CC(C)C)NC(=O)[C@H](Cc2c[nH]cn2)NC1=O [SEQ ID NO: 34] (H-[Ac5c]V[Aib]EIQLMHNLGKHLND-NH2; lactam 13-17)	107 % of vehicle	0.214	1.12 ± 0.09	–	significantly higher potency	increased potencies	strikingly higher potency
CC[C@H](C)[C@H](NC(=O)[C@H](CCC(=O)O)NC(=O)C(C)(C)NC(=O)[C@@H](NC(=O)C1(N)CCCC1)C(C)C)C(=O)N[C@@H](CCC(N)=O)C(=O)N[C@@H](CC(C)C)C(=O)N[C@@H](CC(C)C)C(=O)N[C@@H](Cc1c[nH]cn1)C(=O)N[C@@H](CCC(N)=O)C(=O)N[C@@H](CCCCNC(=N)N)C(=O)N[C@@H](C)C(=O)N[C@H]1CNC(=O)C[C@@H](C(N)=O)NC(=O)[C@H](CC(N)=O)NC(=O)[C@H](CC(C)C)NC(=O)[C@H](Cc2c[nH]c3ccccc23)NC1=O [SEQ ID NO: 17, H-Ac5c-Val-Aib-Glu-Ile-Gln-Leu-Leu-His-Gln-Har-Ala-Dpr( )-Trp-Leu-Asn-Asp( )-NH2] (H-[Ac5c]V[Aib]EIQLLHQ[hArg]A[Dap]WLND-NH2; lactam 13-17)	101 % of vehicle	0.776	1.25 ± 0.05	–	–	–	–
CC[C@H](C)[C@H](NC(=O)[C@H](CCC(=O)O)NC(=O)C(C)(C)NC(=O)[C@@H](NC(=O)C1(N)CCCC1)C(C)C)C(=O)N[C@@H](CCC(N)=O)C(=O)N[C@@H](CC(C)C)C(=O)N[C@@H](CC(C)C)C(=O)N[C@@H](Cc1c[nH]cn1)C(=O)N[C@@H](CCC(N)=O)C(=O)N[C@@H](CCCCNC(=N)N)C(=O)N[C@@H](C)C(=O)N[C@H]1CCNC(=O)C[C@@H](C(N)=O)NC(=O)[C@H](CC(N)=O)NC(=O)[C@H](CC(C)C)NC(=O)[C@H](Cc2c[nH]c3ccccc23)NC1=O [SEQ ID NO: 41, H-Ac5c-Val-Aib-Glu-Ile-Gln-Leu-Leu-His-Gln-Har-Ala-Dab( )-Trp-Leu-Asn-Asp( )-NH2] (H-[Ac5c]V[Aib]EIQLLHQ[hArg]A[Dab]WLND-NH2; lactam 13-17 (inferred))	82 % of vehicle	0.0646	0.99 ± 0.02	–	–	–	–
CC[C@H](C)[C@H](NC(=O)[C@H](CCC(=O)O)NC(=O)C(C)(C)NC(=O)[C@@H](NC(=O)C1(N)CCCC1)C(C)C)C(=O)N[C@@H](CCC(N)=O)C(=O)N[C@@H](CC(C)C)C(=O)N[C@@H](CCSC)C(=O)N[C@@H](Cc1c[nH]cn1)C(=O)N[C@@H](CCC(N)=O)C(=O)N[C@@H](CCCCNC(=N)N)C(=O)N[C@@H](C)C(=O)N[C@H]1CSSC[C@@H](C(N)=O)NC(=O)[C@H](CC(N)=O)NC(=O)[C@H](CC(C)C)NC(=O)[C@H](Cc2c[nH]c3ccccc23)NC1=O [SEQ ID NO: 7, H-Ac5c-Val-Aib-Glu-Ile-Gln-Leu-Met-His-Gln-Har-Ala-Cys( )-Trp-Leu-Asn-Cys( )-NH2] (H-[Ac5c]V[Aib]EIQLMHQ[hArg]ACWLNC-NH2; disulfide 13-17)	85 % of vehicle	0.0501	1.2	–	–	–	–

From patent US20100048462A1, “TRUNCATED PTH PEPTIDES WITH A CYCLIC CONFORMATION” (Zealand Pharma A/S, priority 2006, published 2010)
